Source: patent US20250179078A1, “INHIBITORS OF NLRP3” (PTC THERAPEUTICS, INC., priority 2022, published 2025)

Target: T1, NLRP3 (Homo sapiens, UniProt Q96P20)
T1 construct: host or cells: THP-1 cells differentiated with PMA
Test: IL-1β Secretion Assay (NLRP3-dependent IL1β secretion in THP1 cells)
Format: cell-based
Conditions: PMA-differentiated THP-1 cells; compounds incubated 20 h; 2.5 μM Nigericin 3 h; HTRF IL-1β readout; read-out: IC50 IL-1β Inhibition
How it was run: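 IL-1β in conditioned media, measured by HTRF after 3 h 2.5 μM nigericin stimulation, gave % inhibition fitted logistically for IC50. Before that, PMA-differentiated (100 ng/mL, 24 h) THP-1 cells were preincubated 20 h with 7 compound concentrations (3-fold serial, DMSO 1:200).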

T1 sequence (Q96P20 whole entry): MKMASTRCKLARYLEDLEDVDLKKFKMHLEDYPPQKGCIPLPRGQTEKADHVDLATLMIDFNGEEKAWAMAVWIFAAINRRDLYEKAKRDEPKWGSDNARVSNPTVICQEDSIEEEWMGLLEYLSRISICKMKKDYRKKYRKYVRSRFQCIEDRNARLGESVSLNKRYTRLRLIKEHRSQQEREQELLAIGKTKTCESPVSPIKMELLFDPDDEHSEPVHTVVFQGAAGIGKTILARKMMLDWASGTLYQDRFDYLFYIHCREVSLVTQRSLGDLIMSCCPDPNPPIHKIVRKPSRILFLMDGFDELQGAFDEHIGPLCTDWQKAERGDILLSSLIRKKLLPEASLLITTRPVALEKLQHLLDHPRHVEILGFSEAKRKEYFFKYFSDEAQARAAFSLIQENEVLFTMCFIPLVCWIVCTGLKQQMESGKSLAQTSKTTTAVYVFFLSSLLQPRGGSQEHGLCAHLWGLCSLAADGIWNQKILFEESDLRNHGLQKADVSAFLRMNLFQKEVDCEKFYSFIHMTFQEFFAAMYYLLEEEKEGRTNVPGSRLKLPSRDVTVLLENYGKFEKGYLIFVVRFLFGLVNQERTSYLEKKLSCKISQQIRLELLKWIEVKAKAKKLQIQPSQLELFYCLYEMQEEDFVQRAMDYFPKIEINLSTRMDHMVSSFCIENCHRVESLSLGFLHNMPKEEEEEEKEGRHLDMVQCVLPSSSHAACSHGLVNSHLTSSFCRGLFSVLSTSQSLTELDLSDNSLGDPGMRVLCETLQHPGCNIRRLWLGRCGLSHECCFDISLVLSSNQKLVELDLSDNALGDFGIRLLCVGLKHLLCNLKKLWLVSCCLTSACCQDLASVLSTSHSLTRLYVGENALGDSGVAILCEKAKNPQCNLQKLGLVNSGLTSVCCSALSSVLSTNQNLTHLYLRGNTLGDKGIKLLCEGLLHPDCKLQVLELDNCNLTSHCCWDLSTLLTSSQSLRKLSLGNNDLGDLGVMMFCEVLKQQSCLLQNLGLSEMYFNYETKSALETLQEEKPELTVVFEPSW

Row | SMILES | IC50
1 | COc1cc(F)c(-c2nnc(N[C@@H]3CCCN(C)C3)n3cccc23)c(C2CC2)c1 [Compound 75, 1-(2-cyclopropyl-6-fluoro-4-methoxyphenyl)-N-[(3R)-1-methylpiperidin-3-yl]pyrrolo[1,2-d][1,2,4]triazin-4-amine] | 1 to 10 nM
2 | COc1ccc(-c2nnc(NC[C@@H]3CCCO3)n3cccc23)c(OC(F)(F)F)c1 [Compound 76, 1-[4-methoxy-2-(trifluoromethoxy)phenyl]-N-{[(2S)-oxolan-2-yl]methyl}pyrrolo[1,2-d][1,2,4]triazin-4-amine] | 10 to 100 nM
3 | O=C1NCCC1Nc1nnc(-c2ccc(C(F)(F)F)cc2CC(F)(F)F)c2cccn12 (stereo not drawn) [Compound 77, 3-({1-[2-(2,2,2-trifluoroethyl)-4-(trifluoromethyl)phenyl]pyrrolo[1,2-d][1,2,4]triazin-4-yl}amino)pyrrolidin-2-one] | 1 to 10 nM
4 | O[C@H]1CCCC[C@@H]1Nc1nnc(-c2ccc(C(F)(F)F)cc2OC(F)F)c2cccn12 [Compound 78, (1S,2S)-2-({1-[2-(difluoromethoxy)-4-(trifluoromethyl)phenyl]pyrrolo[1,2-d][1,2,4]triazin-4-yl}amino)cyclohexan-1-ol] | 10 to 100 nM
5 | O[C@@H]1CCCC[C@@H]1Nc1nnc(-c2ccc(C(F)(F)F)cc2OC(F)F)c2cccn12 [Compound 79, (1R,2S)-2-({1-[2-(difluoromethoxy)-4-(trifluoromethyl)phenyl]pyrrolo[1,2-d][1,2,4]triazin-4-yl}amino)cyclohexan-1-ol] | 10 to 100 nM
6 | Cc1ccc(-c2nnc(N[C@H]3CCCC[C@@H]3O)n3cccc23)c(OC(F)F)c1 [Compound 80, (1S,2S)-2-({1-[2-(difluoromethoxy)-4-methylphenyl]pyrrolo[1,2-d][1,2,4]triazin-4-yl}amino)cyclohexan-1-ol] | 10 to 100 nM
7 | COc1ccc(-c2nnc(N[C@H]3CCCC[C@@H]3O)n3cccc23)c(OC(F)(F)F)c1 [Compound 81, (1S,2S)-2-({1-[4-methoxy-2-(trifluoromethoxy)phenyl]pyrrolo[1,2-d][1,2,4]triazin-4-yl}amino)cyclohexan-1-ol] | 10 to 100 nM
8 | CCN1CCC[C@@H](Nc2nnc(-c3ccc(OC)cc3Cl)c3c(F)ccn23)C1 [Compound 82, 1-(2-chloro-4-methoxyphenyl)-N-[(3R)-1-ethylpiperidin-3-yl]-8-fluoropyrrolo[1,2-d][1,2,4]triazin-4-amine] | 1 to 10 nM
9 | COc1ccc(-c2nnc(N[C@@H]3CCCN(CCO)C3)n3ccc(F)c23)c(Cl)c1 [Compound 83, 2-[(3R)-3-{[1-(2-chloro-4-methoxyphenyl)-8-fluoropyrrolo[1,2-d][1,2,4]triazin-4-yl]amino}piperidin-1-yl]ethan-1-ol] | 1 to 10 nM
10 | COc1ccc(-c2nnc(N[C@H]3C[C@@](C)(O)C3)n3ccc(F)c23)c(Cl)c1 [Compound 84, (1s,3s)-3-{[1-(2-chloro-4-methoxyphenyl)-8-fluoropyrrolo[1,2-d][1,2,4]triazin-4-yl]amino}-1-methylcyclobutan-1-ol] | 10 to 100 nM
11 | CCN1CCC[C@@H](Nc2nnc(-c3ccc(OC(F)F)cc3OC(F)(F)F)c3cccn23)C1 [Compound 85, 1-[4-(difluoromethoxy)-2-(trifluoromethoxy)phenyl]-N-[(3R)-1-ethylpiperidin-3-yl]pyrrolo[1,2-d][1,2,4]triazin-4-amine] | < 1 nM
12 | OCCN1CCC[C@@H](Nc2nnc(-c3ccc(OC(F)F)cc3OC(F)(F)F)c3cccn23)C1 [Compound 86, 2-[(3R)-3-({1-[4-(difluoromethoxy)-2-(trifluoromethoxy)phenyl]pyrrolo[1,2-d][1,2,4]triazin-4-yl}amino)piperidin-1-yl]ethan-1-ol] | < 1 nM
13 | CN1C[C@H](F)C[C@@H](Nc2nnc(-c3ccc(OC(F)F)cc3OC(F)(F)F)c3cccn23)C1 [Compound 87, 1-[4-(difluoromethoxy)-2-(trifluoromethoxy)phenyl]-N-[(3R,5R)-5-fluoro-1-methylpiperidin-3-yl]pyrrolo[1,2-d][1,2,4]triazin-4-amine] | 1 to 10 nM
14 | C[C@]1(O)C[C@@H](Nc2nnc(-c3ccc(OC(F)F)cc3OC(F)(F)F)c3cccn23)C1 [Compound 88, (1s,3s)-3-({1-[4-(difluoromethoxy)-2-(trifluoromethoxy)phenyl]pyrrolo[1,2-d][1,2,4]triazin-4-yl}amino)-1-methylcyclobutan-1-ol] | 1 to 10 nM

Other lines, results leading:

Row | IC50 | SMILES
15 | 1 to 10 nM | CC(Nc1nnc(-c2ccc(C(F)(F)F)cc2OC(F)F)c2cccn12)c1cccc(O)c1 (stereo not drawn) [Compound 89, 3-[1-({1-[2-(difluoromethoxy)-4-(trifluoromethyl)phenyl]pyrrolo[1,2-d][1,2,4]triazin-4-yl}amino)ethyl]phenol]
16 | < 1 nM | O[C@@H]1CCCC[C@H]1Nc1nnc(-c2ccc(C(F)(F)F)cc2CC(F)(F)F)c2cccn12 [Compound 90, (1R,2R)-2-({1-[2-(2,2,2-trifluoroethyl)-4-(trifluoromethyl)phenyl]pyrrolo[1,2-d][1,2,4]triazin-4-yl}amino)cyclohexan-1-ol]
17 | 10 to 100 nM | COc1ccc(-c2nnc(NCc3ncco3)n3cccc23)c(OC(F)(F)F)c1 [Compound 91, 1-[4-methoxy-2-(trifluoromethoxy)phenyl]-N-[(1,3-oxazol-2-yl)methyl]pyrrolo[1,2-d][1,2,4]triazin-4-amine]
18 | 100 to 300 nM | COc1ccc(-c2nnc(NCc3nncn3C)n3cccc23)c(OC(F)(F)F)c1 [Compound 92, 1-[4-methoxy-2-(trifluoromethoxy)phenyl]-N-[(4-methyl-4H-1,2,4-triazol-3-yl)methyl]pyrrolo[1,2-d][1,2,4]triazin-4-amine]
19 | 10 to 100 nM | COc1ccc(-c2nnc(NCc3ncnn3C)n3cccc23)c(OC(F)(F)F)c1 [Compound 93, 1-[4-methoxy-2-(trifluoromethoxy)phenyl]-N-[(1-methyl-1H-1,2,4-triazol-5-yl)methyl]pyrrolo[1,2-d][1,2,4]triazin-4-amine]
20 | 10 to 100 nM | COc1ccc(-c2nnc(NC34CC(CO)(C3)C4)n3cccc23)c(OC(F)(F)F)c1 [Compound 94, [3-({1-[4-methoxy-2-(trifluoromethoxy)phenyl]pyrrolo[1,2-d][1,2,4]triazin-4-yl}amino)bicyclo[1.1.1]pentan-1-yl]methanol]
21 | 1 to 10 nM | CCC(=O)c1ccc(-c2nnc(N[C@@H]3CCCN(C)C3)n3cccc23)c(OC(F)F)c1 [Compound 95, 1-[3-(difluoromethoxy)-4-(4-{[(3R)-1-methylpiperidin-3-yl]amino}pyrrolo[1,2-d][1,2,4]triazin-1-yl)phenyl]propan-1-one]
22 | 1 to 10 nM | CC(Nc1nnc(-c2ccc(C(F)(F)F)cc2CC(F)(F)F)c2cccn12)c1cccc(O)c1 (stereo not drawn) [Compound 96, 3-[1-({1-[2-(2,2,2-trifluoroethyl)-4-(trifluoromethyl)phenyl]pyrrolo[1,2-d][1,2,4]triazin-4-yl}amino)ethyl]phenol]
23 | 10 to 100 nM | FC(F)(F)Cc1cc(C(F)(F)F)ccc1-c1nnc(Nc2cc[nH]n2)n2cccc12 [Compound 97, N-(1H-pyrazol-3-yl)-1-[2-(2,2,2-trifluoroethyl)-4-(trifluoromethyl)phenyl]pyrrolo[1,2-d][1,2,4]triazin-4-amine]
24 | 1 to 10 nM | CN1C[C@@H](O)C[C@@H](Nc2nnc(-c3ccc(C(F)(F)F)cc3OC(F)F)c3cccn23)C1 [Compound 98, (3S,5R)-5-({1-[2-(difluoromethoxy)-4-(trifluoromethyl)phenyl]pyrrolo[1,2-d][1,2,4]triazin-4-yl}amino)-1-methylpiperidin-3-ol]
